# Data as given in patent EP1534716B1, “HETEROBICYCLIC PYRAZOLE DERIVATIVES AS KINASE INHIBITORS” (priority 2002, dated 2004).
# Tests used:
# Format in all cases: biochemical
# cdk2/Cyclin A = cdk2/Cyclin A (Homo sapiens, UniProt P24941); test: Inhibition assay of cdk2/Cyclin A activity (SPA); settings: 10 µM ATP, 60 min at room temperature
# Description: (§1) The inhibiting activity of putative cdk/cyclin inhibitors and the potency of selected compounds is determined through a method of assay based on the use of the SPA technology (Amersham Pharmacia Biotech).
# (§2) The assay consists of the transfer of radioactivity labelled phosphate moiety by the kinase to a biotinylated substrate. The resulting 33P-labelled biotinylated product is allowed to bind to streptavidin-coated SPA beads (biotin capacity 130 pmol/mg), and light emitted was measured in a scintillation counter.
# Inhibition assay of cdk2/Cyclin A activity
# Kinase reaction: 4 µM in house biotinylated histone H1 (Sigma # H-5505) substrate, 10 µM ATP (0.1 microCi P^33γ-ATP), 1.1 nM Cyclin A/CDK2 complex, inhibitor in a final volume of 30 µl buffer (TRIS HCl 10 mM pH 7.5, MgCl2 10 mM, DTT 7.5 mM + 0.2 mg/ml BSA) were added to each well of a 96 U bottom. After incubation for 60 min at room temperature, the reaction was stopped by addition of 100 µl PBS buffer containing 32 mM EDTA, 500 µM cold ATP, 0.1% Triton X100 and 10mg/ml streptavidin coated SPA beads. After 20 min incubation, 110 µL of suspension were withdrawn and transferred into 96-well OPTIPLATEs containing 100 µl of 5M CsCl. After 4 hours, the plates were read for 2 min in a Packard TOP-Count radioactivity reader.
# (§3) Experimental data were analyzed by the computer program GraphPad Prizm using the four parameter logistic equation: [formula] where x is the logarithm of the inhibitor concentration, y is the response; y starts at bottom and goes to top with a sigmoid shape.
# Cdc7/dbf4 = Cdc7/dbf4 (Homo sapiens, UniProt O00311); test: Inhibition assay of Cdc7/dbf4 activity (SPA); settings: 2 µM ATP, 60 minutes at 37°C
# Description: Inhibition assay of Cdc7/dbf4 activity
# The inhibition assay of Cdc7/dbf4 activity is performed according to the following protocol.
# The Biotin-MCM2 substrate is trans-phosphorylated by the Cdc7/Dbf4 complex in the presence of ATP traced with γ^33-ATP. The phosphorylated Biotin-MCM2 substrate is then captured by Streptavidin-coated SPA beads and the extent of phosphorylation evaluated by β counting.
# The inhibition assay of Cdc7/dbf4 activity was performed in 96 wells plate according to the following protocol.
# To each well of the plate were added: • 10 µl substrate (biotinylated MCM2, 6 µM final concentration) • 10 µl enzyme (Cdc7/Dbf4, 17.9 nM final concentration) • 10 µl test compound (12 increasing concentrations in the nM to µM range to generate a dose-response curve) • 10 µl of a mixture of cold ATP (2 µM final concentration) and radioactive ATP (1/5000 molar ratio with cold ATP) was then used to start the reaction which was allowed to take place at 37°C.
# Substrate, enzyme and ATP were diluted in 50 mM HEPES pH 7.9 containing 15 mM MgCl2, 2 mM DTT, 3 µM NaVO3, 2mM glycerophosphate and 0.2mg/ml BSA. The solvent for test compounds also contained 10% DMSO.
# After incubation for 60 minutes, the reaction was stopped by adding to each well 100 µl of PBS pH 7.4 containing 50 mM EDTA, 1 mM cold ATP, 0.1% Triton X100 and 10 mg/ml streptavidin coated SPA beads.
# After 20 min incubation, 110 µL of suspension were withdrawn and transferred into 96-well OPTIPLATEs containing 100 µl of 5M CsCl. After 4 hours, the plates were read for 2 min in a Packard TOP-Count radioactivity reader.
# IC50 determination: see above.
# Aurora-2 = target: T1, Aurora-2 (Homo sapiens, UniProt O14965); test: Inhibition assay of Aurora-2 activity (SPA); settings: 10 µM ATP, 60 minutes at room temperature
# T1 sequence (O14965 1-403): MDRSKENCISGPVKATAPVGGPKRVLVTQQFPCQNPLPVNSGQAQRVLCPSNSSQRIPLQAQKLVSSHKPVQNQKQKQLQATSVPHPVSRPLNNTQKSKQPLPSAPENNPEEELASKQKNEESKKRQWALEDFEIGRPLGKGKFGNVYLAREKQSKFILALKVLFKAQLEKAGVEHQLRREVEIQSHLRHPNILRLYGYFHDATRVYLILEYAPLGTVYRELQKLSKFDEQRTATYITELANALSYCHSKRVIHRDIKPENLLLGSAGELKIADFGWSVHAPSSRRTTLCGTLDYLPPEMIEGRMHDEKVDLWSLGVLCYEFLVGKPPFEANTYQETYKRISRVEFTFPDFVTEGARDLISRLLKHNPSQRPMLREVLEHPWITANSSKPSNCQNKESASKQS
# Description: as §1, §2, §3
# Inhibition assay of Aurora-2 activity
# After 60 minutes at room temperature incubation, reaction was stopped and biotinylated peptide captured by adding 100 µl of bead suspension.
# Stratification: 100 µl of CsC12 5 M were added to each well and let stand 4 hour before radioactivity was counted in the Top-Count instrument.
# IC50 determination: see above
# PAK4 = PAK4 (Homo sapiens, UniProt O96013); test: PAK4 inhibition
# Chain of PAK4 (O96013 whole entry, species assumed): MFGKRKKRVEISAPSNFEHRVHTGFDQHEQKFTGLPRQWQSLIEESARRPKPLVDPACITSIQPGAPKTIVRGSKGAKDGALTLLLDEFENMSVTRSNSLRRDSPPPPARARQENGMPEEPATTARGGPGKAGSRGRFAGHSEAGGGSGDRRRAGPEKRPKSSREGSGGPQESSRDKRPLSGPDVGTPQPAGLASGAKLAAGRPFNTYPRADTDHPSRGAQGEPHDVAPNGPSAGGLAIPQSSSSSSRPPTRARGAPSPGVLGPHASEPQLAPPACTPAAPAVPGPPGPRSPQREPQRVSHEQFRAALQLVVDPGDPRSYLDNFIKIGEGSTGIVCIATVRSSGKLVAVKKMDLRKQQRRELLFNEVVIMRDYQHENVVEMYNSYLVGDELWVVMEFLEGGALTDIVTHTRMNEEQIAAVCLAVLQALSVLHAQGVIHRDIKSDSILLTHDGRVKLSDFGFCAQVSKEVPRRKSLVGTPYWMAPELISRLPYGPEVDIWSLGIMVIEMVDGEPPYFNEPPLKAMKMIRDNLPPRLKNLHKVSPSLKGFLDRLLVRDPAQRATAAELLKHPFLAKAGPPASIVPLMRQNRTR
# Chain of Cdc7/dbf4 (O00311 whole entry, species assumed): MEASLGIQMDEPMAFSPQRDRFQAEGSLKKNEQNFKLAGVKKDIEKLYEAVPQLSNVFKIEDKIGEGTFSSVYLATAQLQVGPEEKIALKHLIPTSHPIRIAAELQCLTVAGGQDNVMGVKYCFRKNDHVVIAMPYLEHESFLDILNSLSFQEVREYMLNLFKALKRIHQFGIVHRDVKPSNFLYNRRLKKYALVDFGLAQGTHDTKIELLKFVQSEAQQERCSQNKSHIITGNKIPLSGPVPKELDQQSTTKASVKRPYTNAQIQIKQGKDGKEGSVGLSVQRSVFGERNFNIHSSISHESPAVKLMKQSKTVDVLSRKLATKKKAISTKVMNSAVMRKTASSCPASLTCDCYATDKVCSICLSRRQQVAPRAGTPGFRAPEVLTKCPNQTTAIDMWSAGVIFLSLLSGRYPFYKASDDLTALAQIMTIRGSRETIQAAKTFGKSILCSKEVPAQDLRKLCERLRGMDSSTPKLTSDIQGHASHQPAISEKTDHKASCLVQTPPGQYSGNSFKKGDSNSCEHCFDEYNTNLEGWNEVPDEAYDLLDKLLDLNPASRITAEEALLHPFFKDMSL
# Chain of Cdc7/dbf4 (Q9UBU7 whole entry partner, species assumed): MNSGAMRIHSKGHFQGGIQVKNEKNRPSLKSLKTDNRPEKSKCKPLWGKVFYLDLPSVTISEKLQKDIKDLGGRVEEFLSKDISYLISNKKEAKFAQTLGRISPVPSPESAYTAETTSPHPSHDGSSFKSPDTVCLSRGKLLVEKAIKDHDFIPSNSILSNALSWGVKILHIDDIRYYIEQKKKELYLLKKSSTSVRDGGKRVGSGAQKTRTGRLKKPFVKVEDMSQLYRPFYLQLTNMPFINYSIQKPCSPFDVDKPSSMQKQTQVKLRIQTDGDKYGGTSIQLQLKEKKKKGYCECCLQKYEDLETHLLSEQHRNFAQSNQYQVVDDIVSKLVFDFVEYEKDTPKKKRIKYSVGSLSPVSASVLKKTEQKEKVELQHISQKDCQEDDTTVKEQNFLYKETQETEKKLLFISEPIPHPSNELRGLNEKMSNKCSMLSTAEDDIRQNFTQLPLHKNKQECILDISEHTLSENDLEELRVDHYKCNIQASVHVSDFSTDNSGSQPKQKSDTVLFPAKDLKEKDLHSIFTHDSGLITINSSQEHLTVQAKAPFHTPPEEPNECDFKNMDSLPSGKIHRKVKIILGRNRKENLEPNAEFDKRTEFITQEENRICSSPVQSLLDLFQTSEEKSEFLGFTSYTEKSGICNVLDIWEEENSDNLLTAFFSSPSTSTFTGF
IC50 (cdk2/Cyclin A),IC50 (Cdc7/dbf4),IC50 (Aurora-2),IC50 (PAK4),SMILES
< 500 nM,< 1000 nM,< 100 nM,–,"O=C(Nc1n[nH]c2cc(C(=O)O)sc12)c1ccc(N2CCOCC2)cc1 [Compound 57, 3-[(4-morpholin-4-ylbenzoyl)amino]-1H-thieno[3,2-c]pyrazole-5-carboxylic acid]"
< 500 nM,–,–,–,"CN1CCN(C(=O)c2cc3[nH]nc(NC(=O)c4ccc(F)cc4)c3s2)CC1 [Compound 63, 4-fluoro-N-{5-[(4-methylpiperazin-1-yl)carbonyl]-1H-thieno[3,2-c]pyrazol-3-yl}benzamide]"
< 500 nM,–,–,–,"O=C(Nc1n[nH]c2cc(C(=O)NCc3ccccc3)sc12)c1cc(F)cc(F)c1 [Compound 65, N-benzyl-3-[(3,5-difluorobenzoyl)amino]-1H-thieno[3,2-c]prazole-5-carboxamide]"
< 500 nM,–,< 100 nM,–,"CCCCNC(=O)c1cc2[nH]nc(NC(=O)c3cccs3)c2s1 [Compound 79, N-butyl-3-[(thien-2-ylcarbonyl)amino]-1H-thieno[3,2-c]pyrazole-5-carboxamide]"
< 500 nM,–,–,–,"CCCCNC(=O)c1cc2[nH]nc(NC(=O)CCCC)c2s1 [Compound 84, N-butyl-3-(pentanoylamino)-1H-thieno[3,2-c]pyrazole-5-carboxamide]"
< 500 nM,–,–,–,"CCCCNC(=O)c1cc2[nH]nc(NC(=O)C3CC3)c2s1 [Compound 85, N-butyl-3-[(cyclopropylcarbonyl)amino]-1H-thieno[3,2-c]pyrazole-5-carboxamide]"
< 500 nM,–,–,–,"CCCCNC(=O)c1cc2[nH]nc(NC(=O)C3CC3)c2s1 [Compound 86, N-butyl-3-[(cyclopropylcarbonyl)amino]-1H-thieno[3,2-c]pyrazole-5-carboxamide]"
< 500 nM,–,–,–,"C=CCNC(=O)c1cc2[nH]nc(NC(=O)NCc3ccccc3)c2s1 [Compound 87, N-allyl-3-{[(benzylamino)carbonyl]amino}-1H-thieno[3,2-c]pyrazole-5-carboxamide]"
–,–,–,< 500 nM,"CN1CCN(c2ccc(C(=O)Nc3n[nH]c4cc(C(=O)NCc5ccccc5)sc34)cc2)CC1 [Compound 91, N-benzyl-3-{[4-(4-methylpiperazin-1-yl)benzoyl]amino}-1H-thieno[3,2-c]pyrazole-5-carboxamide]"
–,–,< 100 nM,< 500 nM,"CN1CCN(c2ccc(C(=O)Nc3n[nH]c4cc(C(=O)NCc5cccc(Cl)c5)sc34)cc2)CC1 [Compound 96, N-(3-chlorobenzyl)-3-{[4-(4-methylpiperazin-1-yl)benzoyl]amino}-1H-thieno[3,2-c]pyrazole-5-carboxamide]"
–,< 1000 nM,< 100 nM,–,"CN1CCN(c2ccc(C(=O)Nc3n[nH]c4cc(C(=O)NCc5cccn5C)sc34)cc2)CC1 [Compound 123, 3-{[4-(4-methylpiperazin-1-yl)benzoyl]amino}-N-[(1-methyl-1H-pyrrol-2-yl)methyl]-1H-thieno[3,2-c]pyrazole-5-carboxamide]"
< 500 nM,< 1000 nM,< 100 nM,–,"CN1CCN(c2ccc(C(=O)Nc3n[nH]c4cc(C(=O)NCc5ccoc5)sc34)cc2)CC1 [Compound 124, N-(3-furylmethyl)-3-{[4-(4-methylpiperazin-1-yl)benzoyl]amino}-1H-thieno[3,2-c]pyrazole-5-carboxamide]"
–,–,< 100 nM,< 500 nM,"COC[C@@H](NC(=O)c1cc2[nH]nc(NC(=O)c3ccc(N4CCOCC4)cc3)c2s1)c1ccccc1 [Compound 129, N-[(1S)-2-methoxy-1-phenylethyl]-3-[(4-morpholin-4-ylbenzoyl)amino]-1H-thieno[3,2-c]pyrazole-5-carboxamide]"
–,–,< 100 nM,< 500 nM,"CC[C@@H](NC(=O)c1cc2[nH]nc(NC(=O)c3ccc(N4CCOCC4)cc3)c2s1)c1ccccc1 [Compound 131, 3-[(4-morpholin-4-ylbenzoyl)amino]-N-[(1R)-1-phenylpropyl]-1H-thieno[3,2-c]pyrazole-5-carboxamide]"
–,–,< 100 nM,< 500 nM,"O=C(Nc1n[nH]c2cc(C(=O)NCc3cccc(F)c3)sc12)c1ccc(N2CCOCC2)cc1 [Compound 132, N-(3-fluorobenzyl)-3-[(4-morpholin-4-ylbenzoyl)amino]-1H-thieno[3,2-c]pyrazole-5-carboxamide]"
–,–,< 100 nM,< 500 nM,"O=C(Nc1n[nH]c2cc(C(=O)NCc3ccc(F)cc3)sc12)c1ccc(N2CCOCC2)cc1 [Compound 133, N-(4-fluorobenzyl)-3-[(4-morpholin-4-ylbenzoyl)amino]-1H-thieno[3,2-c]pyrazole-5-carboxamide]"
–,–,< 100 nM,–,"O=C(Nc1n[nH]c2cc(C(=O)NCc3ccc(Cl)cc3)sc12)c1ccc(N2CCOCC2)cc1 [Compound 134, N-(4-chlorobenzyl)-3-[(4-morpholin-4-ylbenzoyl)amino]-1H-thieno[3,2-c]pyrazole-5-carboxamide]"
< 500 nM,–,–,–,"Cc1c(C(=O)NCc2ccc(F)cc2)sc2c(NC(=O)c3ccc(F)cc3)n[nH]c12 [Compound 145, 3-[(4-fluorobenzoyl)amino]-N-(4-fluorobenzyl)-6-methyl-1H-thieno[3,2-c]pyrazole-5-carboxamide]"
< 500 nM,–,< 100 nM,–,"Cc1c(C(=O)NCc2ccc(F)cc2)sc2c(NC(=O)c3cccs3)n[nH]c12 [Compound 146, N-(4-fluorobenzyl)-6-methyl-3-[(thien-2-ylcarbonyl)amino]-1H-thieno[3,2-c]pyrazole-5-carboxamide]"
< 500 nM,< 1000 nM,< 100 nM,–,"O=C(Nc1n[nH]c2cc(C(=O)O)oc12)c1ccc(N2CCOCC2)cc1 [Compound 161, 3-[(4-morpholin-4-ylbenzoyl)amino]-1H-furo[3,2-c]pyrazole-5-carboxylic acid]"
–,< 1000 nM,< 100 nM,–,"CN1CCN(c2ccc(C(=O)Nc3n[nH]c4cc(C(=O)O)oc34)cc2)CC1 [Compound 162, 3-{[4-(4-methylpiperazin-1-yl)benzoyl]amino}-1H-furo[3,2-c]pyrazole-5-carboxylic acid]"
–,–,< 100 nM,< 500 nM,"O=C(Nc1n[nH]c2cc(C(=O)O)oc12)c1ccc(F)cc1 [Compound 163, 3-[(4-fluorobenzoyl)amino]-1H-furo[3,2-c]pyrazole-5-carboxylic acid]"
< 500 nM,–,< 100 nM,< 500 nM,"CCC(NC(=O)c1cc2[nH]nc(NC(=O)c3ccc(N4CCOCC4)cc3)c2o1)c1ccccc1 (stereo not drawn) [Compound 164, 3-[(4-morpholin-4-ylbenzoyl)amino]-N-[-1-phenylpropyl]-1H-furo[3,2-c]pyrazole-5-carboxamide]"
< 500 nM,–,–,–,"CN1CCN(C(=O)c2cc3[nH]nc(NC(=O)c4ccc(F)cc4)c3o2)CC1 [Compound 167, 4-fluoro-N-{5-[(4-methylpiperazin-1-yl)carbonyl]-1H-furo[3,2-c]pyrazol-3-yl}benzamide]"
